The target of data set [1] is T1, recombinant human GST-Syk (Homo sapiens, UniProt P43405).
T1 construct: purchased Carna Biosciences 08-176
Briefly: Homogeneous Time-Resolved Fluorescence (HTRF) assay for the recombinant human Syk enzyme. To be noted: recombinant human GST-Syk 5 pM, ATP 25 μM, read-out: IC50. The format is biochemical. The essentials:
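Recombinant GST-hSyk phosphorylates a biotinylated peptide for 45 min at room temperature. Quenched with EDTA buffer containing 2 nM Eu-anti-phosphotyrosine antibody and 70 nM SA-APC; HTRF read after 30 min.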

The nature of data set [2]: Conversion of prodrug to parent in in vitro biorelevant gastrointestinal tract media. Format: in vitro ADME. To be noted: 37° C.; for Conversion in SGF, time: simulated gastric fluid. The method, then:
Conversion of Prodrug to Parent in In Vitro Biorelevant Gastrointestinal Tract Media: The likely stability of prodrugs in the gastrointestinal tract can be estimated by incubating a prodrug in simulated gastric and intestinal fluids; compounds were measured for stability in simulated gastric fluid (SGF), fasted state simulated intestinal fluid (FaSSIF), and fasted state simulated intestinal fluid plus pancreatin (FaSSIF+pancreatin). Prodrug stock solutions were made by diluting 2 mg of compound in 200 μL DMSO. A 10 mg/mL Pancreatin in FaSSIF stock solution was made by dissolving 10 mg Pancreatin in 1 mL FaSSIF. Samples were prepared by diluting 10 μL of compound stock solution into 990 μL of biorelevant media (990 μL SGF, 990 μL FaSSIF, or 940 μL FaSSIF plus 50 μL Pancreatin stock) in a 2 mL HPLC vial and vortexing the mixture for a few seconds. The samples were incubated at 37° C. and aliquots were removed for up to 24 hours and injected directly on an HPLC to determine the conversion of prodrug to active drug. In the case of compound precipitation upon sample preparation, an individual sample was prepared for each desired time point and the entire sample was diluted with a known volume of acetonitrile/water (50/50) to ensure compound dissolution before HPLC analysis.

A short description of data set [3]: Solubility in biorelevant fasted state simulated intestinal fluid (FaSSIF). The format is physicochemical. To be noted: 25 °C, fassif, kinetic from dmso stock, Solubility. Summed up:
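Compound from 10 mM DMSO stock diluted into FaSSIF (maximum solubility approximately 200 μM), equilibrated, then filtered by centrifugation through a 0.45 μm polypropylene membrane. Filtrate and a 100 μM standard analysed by HPLC/DAD; solubility = (sample peak area/standard peak area) × standard concentration.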

In brackets after ≈: the same amount, converted by molar mass. A value given as a limit tells only on which side of the number the result lay.

`CCOCCOC(=O)OCOC(=O)[C@H]1CC[C@H]([C@@](C)(O)c2ccc(-c3cc(C)cc(Nc4cc(C(F)F)ccn4)n3)cn2)CC1` [Example 2-6, {[(2-ethoxyethoxy)carbonyl]oxy}methyl trans-4-[(1R)-1-(6-{[4-(difluoromethyl)pyridin-2-yl]amino}-4-methyl-2,3′-bipyridin-6′-yl)-1-hydroxyethyl]cyclo hexanecarboxylate]: in data set [1], the IC50 was below 0.5 nM. In addition, the “Conversion in FaSSIF + Pancreatin, time” value in data set [2] (3 h) is 95%, 3 h. In data set [2] (5 h), the “Conversion in FaSSIF, time” value was 0%, 5 h and the “Conversion in SGF, time” value is 0%, 5 h.

With `Cc1cc(Nc2cc(C(F)F)ccn2)nc(-c2ccc([C@](C)(O)[C@H]3CC[C@H](C(=O)OCOC(=O)OCCOCCOCCOCCO)CC3)nc2)c1` [Example 2-4, 15-hydroxy-3-oxo-2,4,7,10,13-pentaoxapentadec-1-yl trans-4-[(1R)-1-(6-{[4-(difluoromethyl)pyridin-2-yl]amino}-4-methyl-2,3′-bipyridin-6′-yl)-1-hydroxyethyl]cyclo hexanecarboxylate], the IC50 in data set [1] amounted to 5.3 nM. For the same compound, the “Conversion in FaSSIF + Pancreatin, time” value in data set [2] (3 h) is 100%, 3 h. Also, the “Conversion in FaSSIF, time” value in data set [2] (24 h) is reported as 5%, 24 h. For the same compound, the “Conversion in SGF, time” value in data set [2] (5 h) is listed as 0%, 5 h.

Take `Cc1cc(Nc2cc(C(F)F)ccn2)nc(-c2ccc([C@](C)(O)[C@H]3CC[C@H](C(=O)OC[C@H]4COC(C)(C)O4)CC3)nc2)c1` [Example 1-14, [(4R)-2,2-dimethyl-1,3-dioxolan-4-yl]methyl trans-4-[(1R)-1-(6-{[4-(difluoromethyl)pyridin-2-yl]amino}-4-methyl-2,3′-bipyridin-6′-yl)-1-hydroxyethyl] cyclohexanecarboxylate]: in data set [1], the IC50 came out at 27.6 nM. Further, the solubility in data set [3] was 109 µM (≈ 65 µg/mL).

Regarding `Cc1cc(Nc2cc(C(F)F)ccn2)nc(-c2ccc([C@](C)(O)[C@H]3CC[C@H](C(=O)OC[N+](C)(C)CCOCCN(C)C)CC3)nc2)c1` [Example 5-23, N-{[({trans-4-[(1R)-1-(6-{[4-(difluoromethyl)pyridin-2-yl]amino}-4-methyl-2,3′-bipyridin-6′-yl)-1-hydroxyethyl]cyclohexyl}carbonyl)oxy]methyl}-2-[2-(dimethylamino)ethoxy]-N,N-dimethylethanaminium], the 50% inhibitory concentration (IC50) in data set [1] amounted to 1.1 nM. In data set [3], this compound gave a solubility of 98 µM.

As to `CC[N+]1(COC(=O)[C@H]2CC[C@H]([C@@](C)(O)c3ccc(-c4cc(C)cc(Nc5cc(C(F)F)ccn5)n4)cn3)CC2)CCCCC1` [Example 5-14, 1-{[({trans-4-[(1R)-1-(6-{[4-(difluoromethyl)pyridin-2-yl]amino}-4-methyl-2,3′-bipyridin-6′-yl)-1-hydroxyethyl]cyclohexyl}carbonyl)oxy]methyl}-1-ethylpiperidinium], the IC50 in data set [1] worked out at 2.3 nM. The compound further gave a solubility in data set [3] of 200 µM.

As to `Cc1cc(Nc2cc(C(F)F)ccn2)nc(-c2ccc([C@](C)(O)[C@H]3CC[C@H](C(=O)OCOC(=O)O[C@H]4CC[C@H](N)CC4)CC3)nc2)c1` [Example 2-11, ({[(trans-4-aminocyclohexyl)oxy]carbonyl}oxy) methyl trans-4-[(1R)-1-(6-{[4-(difluoromethyl)pyridin-2-yl]amino}-4-methyl-2,3′-bipyridin-6′-yl)-1-hydroxyethyl]cyclo hexanecarboxylate], the IC50 in data set [1] stood at 5.2 nM. The compound further had a solubility in data set [3] of 149 µM (≈ 97.4 µg/mL).

In the case of `CO[C@H]1O[C@H](COC(=O)[C@H]2CC[C@H]([C@@](C)(O)c3ccc(-c4cc(C)cc(Nc5cc(C(F)F)ccn5)n4)cn3)CC2)[C@@H](O)[C@H](O)[C@H]1O` [Example 1-26, methyl 6-O-({trans-4-[(1R)-1-(6-{[4-(difluoromethyl)pyridin-2-yl]amino}-4-methyl-2,3′-bipyridin-6′-yl)-1-hydroxyethyl]cyclohexyl}carbonyl)-alpha-D-glucopyranoside], in data set [1], the IC50 is 4.1 nM. For the same compound, the concentration in solution in data set [3] (solubility) came to 109 µM (≈ 71.8 µg/mL).

Turning to `CCOCCOCCOC(=O)OC(OC(=O)[C@H]1CC[C@H]([C@@](C)(O)c2ccc(-c3cc(C)cc(Nc4cc(C(F)F)ccn4)n3)cn2)CC1)C(C)C` (stereo partly drawn) [Example 2-16, 1-(1-methylethyl)-3-oxo-2,4,7,10-tetraoxadodec-1-yl trans-4-[(1R)-1-(6-{[4-(difluoromethyl)pyridin-2-yl]amino}-4-methyl-2,3′-bipyridin-6′-yl)-1-hydroxyethyl]cyclo hexanecarboxylate], in data set [1], the IC50 came to 48.4 nM. In addition, the concentration in solution in data set [3] (solubility) came to 48 µM (≈ 34.3 µg/mL).

As for `Cc1cc(Nc2cc(C(F)F)ccn2)nc(-c2ccc([C@](C)(O)[C@H]3CC[C@H](C(=O)OCOC(=O)OCC4CCOCC4)CC3)nc2)c1` [Example 2-9, {[(tetrahydro-2H-pyran-4-ylmethoxy)carbonyl]oxy}methyl trans-4-[(1R)-1-(6-{[4-(difluoromethyl)pyridin-2-yl]amino}-4-methyl-2,3′-bipyridin-6′-yl)-1-hydroxyethyl]cyclo hexanecarboxylate], in data set [1], the IC50 was 27.2 nM. Besides, in data set [2] (3 h), the “Conversion in FaSSIF + Pancreatin, time” value is reported as 65%, 3 h and the “Conversion in SGF, time” value is given as 2%, 3 h. For the same compound, the “Conversion in FaSSIF, time” value in data set [2] (5 h) was 0%, 5 h.

In the case of `Cc1cc(Nc2cc(C(F)F)ccn2)nc(-c2ccc([C@](C)(O)[C@H]3CC[C@H](C(=O)OC[N+](C)(C)C4CCCCC4)CC3)nc2)c1` [Example 5-11, N-{[({trans-4-[(1R)-1-(6-{[4-(difluoromethyl)pyridin-2-yl]amino}-4-methyl-2,3′-bipyridin-6′-yl)-1-hydroxyethyl]cyclohexyl}carbonyl)oxy]methyl}-N,N-dimethylcyclohexanaminium], the half-inhibitory concentration (IC50) in data set [1] was 0.9 nM. In addition, in data set [3], the concentration in solution (solubility) was 200 µM.

Take `Cc1cc(Nc2cc(C(F)F)ccn2)nc(-c2ccc([C@](C)(O)[C@H]3CC[C@H](C(=O)OCOP(=O)(O)O)CC3)nc2)c1` [Example 10-1, (Phosphonooxy)methyl trans-4-[(1R)-1-(6-{[4-(difluoromethyl)pyridin-2-yl]amino}-4-methyl-2,3′-bipyridin-6′-yl)-1-hydroxyethyl]cyclohexanecarboxylate]: the IC50 in data set [1] was below 0.5 nM. For the same compound, in data set [2] (5 h), the “Conversion in FaSSIF + Pancreatin, time” value is 50%, 5 h; the “Conversion in FaSSIF, time” value is given as 20%, 5 h; the “Conversion in SGF, time” value was 5%, 5 h.

For the compound `Cc1cc(Nc2cc(C(F)F)ccn2)nc(-c2ccc([C@](C)(O)[C@H]3CC[C@H](C(=O)Oc4ccc(C#N)cc4)CC3)nc2)c1` [Example 1-29, 4-cyanophenyl trans-4-[(1R)-1-(6-{[4-(difluoromethyl)pyridin-2-yl]amino}-4-methyl-2,3′-bipyridin-6′-yl)-1-hydroxyethyl] cyclohexanecarboxylate], in data set [1], the IC50 is 7.3 nM. In addition, the “Conversion in FaSSIF + Pancreatin, time” value in data set [2] (24 h) is recorded as 44%, 24 h. Also, in data set [2] (5 h), the “Conversion in FaSSIF, time” value is on record as 0%, 5 h and the “Conversion in SGF, time” value is 0%, 5 h.

For the compound `Cc1cc(Nc2cc(C(F)F)ccn2)nc(-c2ccc([C@](C)(O)[C@H]3CC[C@H](C(=O)O[C@H]4CC[C@H](N(C)C)CC4)CC3)nc2)c1` [Example 9-1, Trans-4-(Dimethylamino)cyclohexyl trans-4-[(1R)-1-(6-{[4-(difluoromethyl)pyridin-2-yl]amino}-4-methyl-2,3′-bipyridin-6′-yl)-1-hydroxyethyl]cyclohexanecarboxylate], the IC50 in data set [1] came out at 3.2 nM. This compound also showed a solubility in data set [3] of 162 µM (≈ 98.5 µg/mL).

With `Cc1cc(Nc2cc(C(F)F)ccn2)nc(-c2ccc([C@](C)(O)[C@H]3CC[C@H](C(=O)O[C@H]4CC[C@@H](N)CC4)CC3)nc2)c1` [Example 1-2, cis-4-Aminocyclohexyl trans-4-[(1R)-1-(6-{[4-(difluoromethyl)pyridin-2-yl]amino}-4-methyl-2,3′-bipyridin-6′-yl)-1-hydroxyethyl]cyclohexanecarboxylate], the IC50 in data set [1] came to 4.2 nM. Moreover, the solubility in data set [3] is 114 µM (≈ 66.1 µg/mL).

Regarding `Cc1cc(Nc2cc(C(F)F)ccn2)nc(-c2ccc([C@](C)(O)[C@H]3CC[C@H](C(=O)OC4CCNCC4)CC3)nc2)c1` [Example 1-17, piperidin-4-yl trans-4-[(1R)-1-(6-{[4-(difluoromethyl)pyridin-2-yl]amino}-4-methyl-2,3′-bipyridin-6′-yl)-1-hydroxyethyl] cyclohexanecarboxylate], in data set [1], the IC50 turned out to be 4.1 nM. The concentration in solution in data set [3] (solubility) was 136 µM (≈ 76.9 µg/mL).

For the compound `Cc1cc(Nc2cc(C(F)F)ccn2)nc(-c2ccc([C@](C)(O)[C@H]3CC[C@H](C(=O)OCC4CCOCC4)CC3)nc2)c1` [Example 1-20, tetrahydro-2H-pyran-4-ylmethyl trans-4-[(1R)-1-(6-{[4-(difluoromethyl)pyridin-2-yl]amino}-4-methyl-2,3′-bipyridin-6′-yl)-1-hydroxyethyl] cyclohexanecarboxylate], the IC50 in data set [1] came to 34.1 nM. In data set [3], this compound registered a solubility of 47 µM (≈ 27.3 µg/mL).

Values taken from patent US20150299125A1, “PRODRUG BIPYRIDYLAMINOPYRIDINES AS SYK INHIBITORS” (MERCK SHARP & DOHME CORP., priority 2012, published 2015).
